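Briefly, cells in 96-well plates were exposed to five compound concentrations for 48 h, and endpoints were estimated by linear interpolation. Here, GI50 denotes the concentration required for 50% inhibition of growth. TGI marks complete inhibition of growth.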
Key:
Experiment in all cases: inhibition of tumour cell growth, NCI panel, 48 h
[1] = tested on: MALME-3M melanoma
[2] = tested on: LOX IMVI melanoma
[3] = tested on: NCI-H522 lung
[4] = tested on: UACC-257 melanoma
[5] = tested on: NCI-H460 lung
[6] = tested on: CAKI-1 renal
[7] = tested on: SF-295 CNS
[8] = tested on: UACC-62 melanoma
[9] = tested on: HS 578T breast
[10] = tested on: HCT-15 colon
[11] = tested on: PC-3 prostate
[12] = tested on: UO-31 renal
[13] = tested on: U251 CNS
[14] = tested on: MOLT-4 leukemia
[15] = tested on: HOP-62 NSCLC
[16] = tested on: BT-549 breast
[17] = tested on: K-562 leukemia
[18] = tested on: NCI/ADR-RES ovarian
[19] = tested on: ACHN renal
[20] = tested on: SNB-75 CNS
[21] = tested on: 786-0 renal
[22] = tested on: SK-MEL-5 melanoma
[23] = tested on: A498 renal
[24] = tested on: MDA-MB-435
[25] = tested on: SR leukemia
[26] = tested on: MCF7 breast
[27] = tested on: SK-MEL-28 melanoma
[28] = tested on: COLO 205 colon
[29] = tested on: HOP-92 NSCLC
[30] = tested on: DU-145 prostate
[31] = tested on: T-47D breast
[32] = tested on: SW-620 colon
[33] = tested on: TK-10 renal
[34] = tested on: SF-268 CNS
[35] = tested on: RXF 393 renal
[36] = tested on: SF-539 CNS
[37] = tested on: HCC-2998 colon
[38] = tested on: CCRF-CEM leukemia
[39] = tested on: A549 NSCLC
[40] = tested on: HL-60(TB) leukemia
[41] = tested on: OVCAR-5 ovarian
[42] = tested on: NCI-H23 lung
[43] = tested on: HT29 colon
[44] = tested on: SN12C renal
[45] = tested on: M14 melanoma
[46] = tested on: SK-MEL-2 melanoma
[47] = tested on: RPMI-8226 leukemia
[48] = tested on: KM12 colon
[49] = tested on: HCT-116 colon
[50] = tested on: OVCAR-3 ovarian
[51] = tested on: SK-OV-3 ovarian
[52] = tested on: OVCAR-4 ovarian
[53] = tested on: NCI-H226 lung
[54] = tested on: IGROV1 ovarian
[55] = tested on: OVCAR-8 ovarian
[56] = tested on: SNB-19 CNS

## Cc1ccc2c(n1)C(=O)C(Cl)=C(Nc1cccc(C(F)(F)F)c1)C2=O
[1]
  GI50: 1.79 µM
  TGI: 3.61 µM
[2]
  GI50: 1.51 µM
  TGI: 3.33 µM
[3]
  GI50: 2.03 µM
  TGI: 5.12 µM
[4]
  GI50: 1.65 µM
  TGI: 3.24 µM
[5]
  GI50: 18.4 µM
  TGI: 40.8 µM
[6]
  GI50: 1.58 µM
  TGI: 3.01 µM
[7]
  GI50: 16.3 µM
  TGI: 31.2 µM
[8]
  GI50: 4.28 µM
  TGI: 18.4 µM
[9]
  GI50: 15.1 µM
  TGI: 85.6 µM
[10]
  GI50: 1.66 µM
  TGI: 3.55 µM
[11]
  GI50: 2.9 µM
  TGI: 11.5 µM
[12]
  GI50: 1.54 µM
  TGI: 2.95 µM
[13]
  GI50: 6.45 µM
  TGI: 24.8 µM
[14]
  GI50: 1.69 µM
  TGI: 5.38 µM
[15]
  GI50: 17 µM
  TGI: 31.8 µM
[16]
  GI50: 2.16 µM
  TGI: 5.47 µM
[17]
  GI50: 0.31 µM
  TGI: 1.3 µM
[18]
  GI50: 2.65 µM
  TGI: 7.88 µM
[19]
  GI50: 1.78 µM
  TGI: 3.31 µM
[20]
  GI50: 13 µM
  TGI: 27.4 µM
[21]
  GI50: 1.8 µM
  TGI: 3.55 µM
[22]
  GI50: 2.75 µM
  TGI: 7.84 µM
[23]
  GI50: 13.8 µM
  TGI: 27.9 µM
[24]
  GI50: 1.95 µM
  TGI: 3.91 µM
[25]
  GI50: 1.56 µM
  TGI: 5 µM
[26]
  GI50: 1.85 µM
  TGI: 4.66 µM
[27]
  GI50: 1.95 µM
  TGI: 3.66 µM
[28]
  GI50: 1.82 µM
  TGI: 3.78 µM
[29]
  GI50: 1.91 µM
  TGI: 3.89 µM
[30]
  GI50: 1.8 µM
  TGI: 3.31 µM
[31]
  GI50: 1.93 µM
  TGI: 4.8 µM
[32]
  GI50: 2.05 µM
  TGI: 4.89 µM
[33]
  GI50: 2.01 µM
  TGI: 3.52 µM
[34]
  GI50: 4.76 µM
  TGI: 19.6 µM
[35]
  GI50: 1.61 µM
  TGI: 3 µM
[36]
  GI50: 3.18 µM
  TGI: 10.3 µM
[37]
  GI50: 2.6 µM
  TGI: 6.48 µM
[38]
  GI50: 1.46 µM
  TGI: 4.71 µM
[39]
  GI50: 20.1 µM
  TGI: 50 µM
[40]
  GI50: 1.5 µM
  TGI: 3.68 µM
[41]
  GI50: 6.03 µM
  TGI: 22.1 µM
[42]
  GI50: 1.82 µM
  TGI: 4.67 µM
[43]
  GI50: 2.6 µM
  TGI: 6.63 µM
[44]
  GI50: 2.16 µM
  TGI: 5.66 µM
[45]
  GI50: 1.92 µM
  TGI: 4.39 µM
[46]
  GI50: 2.38 µM
  TGI: 5.73 µM
[47]
  GI50: 1.92 µM
  TGI: 5.91 µM
[48]
  GI50: 15.9 µM
  TGI: 32.3 µM
[49]
  GI50: 1.51 µM
  TGI: 3.22 µM
[50]
  GI50: 1.68 µM
  TGI: 3.11 µM
[51]
  GI50: 14.2 µM
  TGI: 27.6 µM
[52]
  GI50: 1.56 µM
  TGI: 3.27 µM
[53]
  GI50: 2.57 µM
  TGI: 11.5 µM
[54]
  GI50: 1.87 µM
  TGI: 3.6 µM
[55]
  GI50: 2.68 µM
  TGI: 8.93 µM
[56]
  GI50: 16 µM
  TGI: 45.3 µM
